In PubChem BioAssay (NCI) one finds GI50 and TGI data, which are given here for 9 molecules.

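Following 48 hours of exposure in 96-well plates, responses at five concentrations were used to interpolate endpoints linearly. At the GI50, growth is halved. TGI denotes the concentration required for complete inhibition of growth.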 Some results are limits rather than exact numbers.

Among the test systems are NCI-H522 lung; T-47D breast; HL-60(TB) leukemia; HCC-2998 colon; M14 melanoma; SNB-19 CNS; OVCAR-3 ovarian; CCRF-CEM leukemia; SK-MEL-28 melanoma; HCT-116 colon.
Test in all cases: NCI tumour cell line growth inhibition, 48 h

Turning to `Oc1ccc(C2c3ccccc3Oc3ccccc32)c2cccnc12`, the GI50 is 2570 nM in the assay with NCI-H522 lung; 2950 nM in the assay with T-47D breast; 1940 nM in the assay on HL-60(TB) leukemia; 1890 nM in the assay with HCC-2998 colon; 1340 nM in the assay on M14 melanoma; 1850 nM in the assay with SNB-19 CNS. For the same molecule, the GI50 with OVCAR-3 ovarian is 2450 nM; in the assay on CCRF-CEM leukemia, 738 nM; with SK-MEL-28 melanoma, 5.12 µM; with HCT-116 colon it was 852 nM. The TGI with NCI-H522 lung was > 100 µM; in the assay on T-47D breast, > 100 µM; with HL-60(TB) leukemia, > 100 µM; in the assay on HCC-2998 colon, > 100 µM; in the assay with M14 melanoma, 4.21 µM; in the assay on SNB-19 CNS it was > 100 µM. For the same molecule, the TGI in the assay on OVCAR-3 ovarian, in the assay with CCRF-CEM leukemia, in the assay with SK-MEL-28 melanoma and with HCT-116 colon was > 100 µM each time.

Turning to `Cc1cc2c(C(N)=O)c(N)n(-c3c(C)ccc(O)c3C)c2nc1C`, the GI50 is 1480 nM in the assay on NCI-H522 lung; 6680 nM with T-47D breast; 4400 nM in the assay on HL-60(TB) leukemia; 3210 nM in the assay on HCC-2998 colon; 834 nM in the assay on M14 melanoma; 8280 nM in the assay on SNB-19 CNS. Further, the GI50 in the assay with OVCAR-3 ovarian was 3070 nM; in the assay on CCRF-CEM leukemia it was 2650 nM; with SK-MEL-28 melanoma it was 4.73 µM; in the assay on HCT-116 colon, 2520 nM. Also, the TGI was 5.09 µM with NCI-H522 lung; > 100 µM in the assay with T-47D breast; > 100 µM in the assay on HL-60(TB) leukemia; 11.7 µM with HCC-2998 colon; 5.83 µM in the assay on M14 melanoma; > 100 µM with SNB-19 CNS. The TGI in the assay on OVCAR-3 ovarian was 14.7 µM; in the assay on CCRF-CEM leukemia it was > 100 µM; in the assay on SK-MEL-28 melanoma it was > 100 µM; in the assay with HCT-116 colon, 15.2 µM.

On to `O=C1OC(=O)C2CCCC3CCCC1C32` (stereo not given), for which the TGI with NCI-H522 lung, in the assay on T-47D breast, with HL-60(TB) leukemia, in the assay on HCC-2998 colon, in the assay with M14 melanoma and in the assay with SNB-19 CNS was > 100 µM throughout. Further, the TGI with OVCAR-3 ovarian, in the assay on CCRF-CEM leukemia, with SK-MEL-28 melanoma and in the assay with HCT-116 colon was > 100 µM in each case.

`CC1=C(C(=O)Nc2cc(Cl)c3[nH]ncc3c2)C(c2ccc(C(F)(F)F)cc2)CC(=O)N1` (stereo not given): the GI50 was > 18700 nM in the assay on NCI-H522 lung; > 12800 nM in the assay on T-47D breast; > 21200 nM in the assay on HL-60(TB) leukemia; > 25000 nM in the assay on HCC-2998 colon; > 25000 nM in the assay on M14 melanoma; > 25000 nM in the assay with SNB-19 CNS. For the same molecule, the GI50 in the assay with OVCAR-3 ovarian is > 25000 nM; in the assay with CCRF-CEM leukemia, 13800 nM; in the assay on SK-MEL-28 melanoma, > 25 µM; in the assay on HCT-116 colon it was > 22400 nM. Further, the TGI in the assay on NCI-H522 lung, with T-47D breast, with HL-60(TB) leukemia, in the assay with HCC-2998 colon, in the assay on M14 melanoma and in the assay with SNB-19 CNS was > 25 µM throughout. The TGI with OVCAR-3 ovarian, in the assay with CCRF-CEM leukemia, in the assay with SK-MEL-28 melanoma and in the assay with HCT-116 colon was > 25 µM in each case.

As for `CSC(=S)OC1CC(n2cnc3c(NC(=O)c4ccccc4)ncnc32)OC1CO[Si](C)(C)C(C)(C)C` (stereo not given), the TGI with NCI-H522 lung is > 56.2 µM; in the assay with T-47D breast, > 56.2 µM; in the assay with HL-60(TB) leukemia it was 32.6 µM; in the assay on HCC-2998 colon, > 31.6 µM; in the assay on M14 melanoma it was > 56.2 µM; in the assay with SNB-19 CNS, > 56.2 µM. In addition, the TGI is 34.4 µM in the assay on OVCAR-3 ovarian, > 51.7 µM with CCRF-CEM leukemia, > 46.4 µM in the assay with SK-MEL-28 melanoma and > 100 µM in the assay on HCT-116 colon.

In the case of `Cc1ccc(C(=O)/C(=C\c2ccc([N+](=O)[O-])cc2)S(=O)Cc2ccc(Cl)cc2)cc1` (stereo not given), the GI50 in the assay with NCI-H522 lung is 1720 nM; in the assay with T-47D breast, 1510 nM; with HL-60(TB) leukemia it was 2470 nM; in the assay with HCC-2998 colon it was 1820 nM; in the assay on M14 melanoma it was 1650 nM; in the assay with SNB-19 CNS it was 1830 nM. The GI50 is 1700 nM in the assay with OVCAR-3 ovarian, 635 nM with CCRF-CEM leukemia, 1.76 µM in the assay with SK-MEL-28 melanoma and 1430 nM with HCT-116 colon. For the same molecule, the TGI was determined as 3.18 µM in the assay on NCI-H522 lung; 3.37 µM in the assay with T-47D breast; 6.82 µM in the assay on HL-60(TB) leukemia; 3.36 µM with HCC-2998 colon; 3.19 µM in the assay with M14 melanoma; 3.68 µM in the assay with SNB-19 CNS. For the same molecule, the TGI is 3.14 µM with OVCAR-3 ovarian, > 100 µM with CCRF-CEM leukemia, 3.4 µM in the assay with SK-MEL-28 melanoma and 2.92 µM in the assay with HCT-116 colon.

For `CCCCCCCCCCCCCCCCCCOCC(CCP(=O)(CP(=O)(O)O)Oc1ccccc1)OCCCCCCCCCCCCCCCCCC` (stereo not given), the TGI in the assay with NCI-H522 lung, with T-47D breast, in the assay with HL-60(TB) leukemia, in the assay with HCC-2998 colon, in the assay with M14 melanoma and with SNB-19 CNS was > 100 µM each time. In addition, the TGI in the assay on OVCAR-3 ovarian, with CCRF-CEM leukemia, in the assay with SK-MEL-28 melanoma and with HCT-116 colon was > 100 µM throughout.

As for `C/C(=C\c1cc(C(F)(F)F)n(-c2ccc(N)cc2)n1)[C@@H]1C[C@@H]2O[C@]2(C)CCC[C@H](C)[C@H](O)[C@@H](C)C(=O)C(C)(C)[C@@H](O)CC(=O)O1`, the GI50 was 23.3 nM in the assay on NCI-H522 lung; 54.2 nM with T-47D breast; 16.8 nM with HL-60(TB) leukemia; 24.4 nM in the assay on HCC-2998 colon; 16.6 nM in the assay with M14 melanoma; 71.1 nM in the assay on SNB-19 CNS. For the same molecule, the GI50 is 18.2 nM with OVCAR-3 ovarian, 42.1 nM with CCRF-CEM leukemia, 0.547 µM in the assay with SK-MEL-28 melanoma and 7.75 nM with HCT-116 colon. The TGI was 0.0839 µM in the assay on NCI-H522 lung; > 11.1 µM in the assay with T-47D breast; 2.68 µM in the assay on HL-60(TB) leukemia; 1.39 µM with HCC-2998 colon; 0.096 µM in the assay with M14 melanoma; > 11.1 µM with SNB-19 CNS. Also, the TGI was 1.75 µM with OVCAR-3 ovarian, > 11.1 µM with CCRF-CEM leukemia, > 11.1 µM in the assay with SK-MEL-28 melanoma and > 5.49 µM with HCT-116 colon.

Consider `CC(C(N)C(=O)NC(C(=O)O)C1OC(n2ccc(=O)[nH]c2=O)C(O)C1O)C(O)c1ccc(O)cn1` (stereo not given), for which the TGI with NCI-H522 lung, in the assay on T-47D breast, with HL-60(TB) leukemia, in the assay on HCC-2998 colon, in the assay on M14 melanoma and with SNB-19 CNS was > 100 µM each time. Besides, the TGI in the assay on OVCAR-3 ovarian, in the assay with CCRF-CEM leukemia, with SK-MEL-28 melanoma and in the assay with HCT-116 colon was > 100 µM throughout.
